Reference: patent US9757350B2, “Small molecule inhibitors of replication protein A that also act synergistically with cisplatin” (Indiana University Research and Technology Corp., priority 2010, dated 2017)

Key:
[1] = system: A549 cells; assay: Cell cycle analysis by PI staining, A549; type: cell-based; conditions: A549, increasing doses
Description: Referring now to FIG. 12A and FIG. 12B. Cell Cycle Analysis of Lung Cancer Cell Lines Following Treatment with MCI13E. A549. Referring now to FIG. 12C, and FIG. 12D. H460 were treated as indicated and analyzed for the cell cycle distribution using PI staining and flow cytometry. Quantification of data following 6 hours and 12 hour treatment with 10 and 20 μM MCI13E was performed for both A549 (FIG. 12E) and H460 (FIG. 12F) Data presented represent the averages of three replicate experiments.
Cell cycle analysis was also performed on the three lung cancer cell lines using PI staining to identify the potential arrest resulting from treatment with SMIs. Briefly, cells were plated in 6-well dishes (2×10^5 cells total) and treated for 6 or 12 hours with increasing concentration of inhibitor. Adherent and non-adherent cells were collected, washed twice with PBS containing 2% bovine serum albumin (BSA), resuspended in 70% cold EtOH and incubated overnight at −20° C. Cells were again collected and stained with PI (1 μg/mL) and RNaseA (25 μg/mL) for 30 min. at 37° C. followed by 1.5 hours at 4° C. in the dark. Flow cytometry was performed as above and data were analyzed on a histogram with events plotted against the FL2-A parameter. Cell cycle distribution was analyzed using the ModFit software and data presented represents three independent trials.

[2] = system: RPA; assay: Western blot of endogenous RPA34 levels; type: cell-based; conditions: western blot for RPA34
Description: Referring now to FIG. 18. Blot showing Endogenous Levels of RPA. Each cell line analyzed were plated (3×10^6) in 10 cm dishes and allowed to adhere overnight. Following a 5 ml PBS wash the cells were scraped into 100 μl of RIPA buffer. Cell extracts (40 μg) were loaded onto 10% SDS-PAGE gels, transferred to nitrocellulose membranes and probed for the presence of RPA34. Purified RPA was used as a positive control while GAPDH was probed for a loading control.

## CC1(C)C2CCC1(C)C(OC(=O)CBr)C2 (racemic) [MCI13E, (+/−)-Isobornyl bromoacetate]
[1]
  Cell cycle distribution: greater proportion of cells in the G1 phase
[2]
  Levels of endogenous RPA: No change in the levels of endogenous RPA
